Like-named read-outs stand apart in the source and are kept apart here.
Tests used:
MSK1 = target: T1, MSK1 (Homo sapiens, UniProt O75582); assay: Upstate kinase Profiler counter-screening; type: biochemical
T1 construct: purchased Upstate

Blk = Blk (Mus musculus, UniProt P16277)
[1] = system: A2780 ovarian carcinoma xenografts; assay: A2780 xenograft ovarian cancer model; type: in vivo, nude mice
CDK6/cyclinD3 = target: T2, CDK6/cyclinD3 (Homo sapiens, UniProt Q00534); assay: Upstate kinase Profiler counter-screening; type: biochemical; settings: at 1 μM
T2 construct: purchased Upstate

phospho-Rb Ser 807/811 = settings: single dose IP 40 mg/kg; samples post dose vs T0
From the text: Skin samples were harvested at various intervals following dosing and compared with biopsies harvested prior to dosing (T0). Biopsied samples were fixed overnight in 10% formalin.

PKCε = target: T3, PKCε (Homo sapiens, UniProt Q02156); assay: Upstate kinase Profiler counter-screening; type: biochemical
T3 construct: purchased Upstate
T3 sequence (Q02156 1-737): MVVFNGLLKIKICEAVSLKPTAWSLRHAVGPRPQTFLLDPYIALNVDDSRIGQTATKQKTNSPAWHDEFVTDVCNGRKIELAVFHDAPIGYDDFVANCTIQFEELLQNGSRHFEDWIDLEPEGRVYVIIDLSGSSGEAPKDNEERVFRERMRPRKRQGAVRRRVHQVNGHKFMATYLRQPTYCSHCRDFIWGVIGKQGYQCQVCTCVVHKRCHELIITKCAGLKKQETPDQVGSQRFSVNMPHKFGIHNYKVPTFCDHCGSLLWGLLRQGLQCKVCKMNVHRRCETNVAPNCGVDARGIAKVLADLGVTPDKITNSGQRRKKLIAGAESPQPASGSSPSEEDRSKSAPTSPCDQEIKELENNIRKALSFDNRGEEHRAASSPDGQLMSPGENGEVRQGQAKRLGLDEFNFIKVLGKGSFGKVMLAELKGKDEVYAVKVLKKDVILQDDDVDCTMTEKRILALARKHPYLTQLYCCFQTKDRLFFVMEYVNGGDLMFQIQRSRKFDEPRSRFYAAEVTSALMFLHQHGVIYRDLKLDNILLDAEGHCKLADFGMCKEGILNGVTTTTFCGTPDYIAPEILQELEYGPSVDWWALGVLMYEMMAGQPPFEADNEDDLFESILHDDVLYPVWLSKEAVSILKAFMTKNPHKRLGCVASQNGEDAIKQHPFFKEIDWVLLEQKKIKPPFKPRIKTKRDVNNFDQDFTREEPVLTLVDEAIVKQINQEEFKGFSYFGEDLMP

Rsk2 = target: T4, Rsk2 (Homo sapiens, UniProt P51812); assay: Upstate kinase Profiler counter-screening; type: biochemical
T4 construct: purchased Upstate
T4 sequence (P51812 whole entry, species assumed): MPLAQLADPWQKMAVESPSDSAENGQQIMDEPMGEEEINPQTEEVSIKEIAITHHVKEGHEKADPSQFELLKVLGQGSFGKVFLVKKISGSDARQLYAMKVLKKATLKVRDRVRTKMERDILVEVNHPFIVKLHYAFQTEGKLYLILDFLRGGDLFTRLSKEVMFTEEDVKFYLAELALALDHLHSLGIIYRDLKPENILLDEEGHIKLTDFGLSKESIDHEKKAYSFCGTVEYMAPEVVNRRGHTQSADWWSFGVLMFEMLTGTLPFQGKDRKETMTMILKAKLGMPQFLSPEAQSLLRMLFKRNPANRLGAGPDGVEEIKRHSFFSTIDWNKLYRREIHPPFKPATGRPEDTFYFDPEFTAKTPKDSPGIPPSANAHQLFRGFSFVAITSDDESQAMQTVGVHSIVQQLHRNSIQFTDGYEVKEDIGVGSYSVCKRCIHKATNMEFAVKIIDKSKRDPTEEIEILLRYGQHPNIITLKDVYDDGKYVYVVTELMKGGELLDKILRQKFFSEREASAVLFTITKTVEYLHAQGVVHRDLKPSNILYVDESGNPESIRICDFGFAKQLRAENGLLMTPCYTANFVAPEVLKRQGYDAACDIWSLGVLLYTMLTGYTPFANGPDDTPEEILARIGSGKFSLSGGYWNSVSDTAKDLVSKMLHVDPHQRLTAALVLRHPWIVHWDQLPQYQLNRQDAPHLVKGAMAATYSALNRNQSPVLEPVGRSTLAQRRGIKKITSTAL

A2780 cells = settings: two hours exposure, 24 hours after exposure
Method: Cells were then fixed, stained with an FITC-conjugated, anti-BrdU monoclonal antibody and propidium iodide. The cells thus prepared were analyzed using 2-color flow cytometry with doublet-discrimination.

[2] = system: lymphocyte proliferation (BrdU incorporation)
Method: The samples were collected in tubes containing heparin and shipped to a central laboratory for evaluation. Whole blood from each sample was diluted 1:5 in complete RPMI media and 200 microliter aliquots were added to wells of a 96-well plate. Samples from each time point were either stimulated with PHA (0.01 mg/ml final concentration), or not stimulated. […] Samples were stained with FITC conjugated anti-CD45 antibody. RBC's were lysed and the remaining cells were fixed, permeabilized and treated with DNase. The samples were then incubated with an anti-BrdU antibody. Washed cells were re-suspended and the CD45 and BrdU-positive and −negative populations were detected by FACS. FIGS. 10, 12A, and 12B show the percent of BrdU incorporation for samples taken for various doses.

Lyn = target: T5, Lyn (Homo sapiens, UniProt P07948); assay: Upstate kinase Profiler counter-screening; type: biochemical
T5 construct: purchased Upstate
T5 sequence (P07948 whole entry, species assumed): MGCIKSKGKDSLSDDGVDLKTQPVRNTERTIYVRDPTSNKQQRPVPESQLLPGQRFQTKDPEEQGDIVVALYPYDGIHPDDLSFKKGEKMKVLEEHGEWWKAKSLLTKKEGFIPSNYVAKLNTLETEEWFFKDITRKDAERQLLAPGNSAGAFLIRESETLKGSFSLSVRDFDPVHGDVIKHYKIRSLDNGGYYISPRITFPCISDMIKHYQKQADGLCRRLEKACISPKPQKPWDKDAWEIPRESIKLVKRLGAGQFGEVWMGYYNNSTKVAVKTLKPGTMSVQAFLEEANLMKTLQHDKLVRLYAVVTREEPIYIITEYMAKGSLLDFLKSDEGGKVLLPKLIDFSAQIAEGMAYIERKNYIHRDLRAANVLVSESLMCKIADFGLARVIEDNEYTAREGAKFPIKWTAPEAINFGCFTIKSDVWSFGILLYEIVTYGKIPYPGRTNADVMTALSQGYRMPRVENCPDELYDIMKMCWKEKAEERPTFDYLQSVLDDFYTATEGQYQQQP

cSRC = target: T6, cSRC (Homo sapiens, UniProt P12931); assay: Upstate kinase Profiler counter-screening; type: biochemical
T6 construct: purchased Upstate
T6 sequence (P12931 whole entry, species assumed): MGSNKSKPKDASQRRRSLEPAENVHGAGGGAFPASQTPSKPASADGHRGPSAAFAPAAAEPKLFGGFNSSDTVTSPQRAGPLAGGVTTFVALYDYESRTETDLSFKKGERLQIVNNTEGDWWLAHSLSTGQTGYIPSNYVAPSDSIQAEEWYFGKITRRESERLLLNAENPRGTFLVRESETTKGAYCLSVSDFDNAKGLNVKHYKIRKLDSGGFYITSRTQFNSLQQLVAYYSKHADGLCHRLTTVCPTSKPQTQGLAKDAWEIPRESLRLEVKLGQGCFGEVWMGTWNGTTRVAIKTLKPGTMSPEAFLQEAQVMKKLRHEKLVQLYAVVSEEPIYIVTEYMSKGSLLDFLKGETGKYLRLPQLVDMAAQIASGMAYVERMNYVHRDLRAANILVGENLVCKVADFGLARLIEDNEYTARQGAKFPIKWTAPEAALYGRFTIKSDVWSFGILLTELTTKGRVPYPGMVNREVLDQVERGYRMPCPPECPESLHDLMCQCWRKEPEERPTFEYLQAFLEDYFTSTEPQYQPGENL

PKCβII = target: T7, PKCβII (Homo sapiens, UniProt P05771); assay: Upstate kinase Profiler counter-screening; type: biochemical
T7 construct: purchased Upstate
T7 sequence (P05771 1-673 isoform P05771-2): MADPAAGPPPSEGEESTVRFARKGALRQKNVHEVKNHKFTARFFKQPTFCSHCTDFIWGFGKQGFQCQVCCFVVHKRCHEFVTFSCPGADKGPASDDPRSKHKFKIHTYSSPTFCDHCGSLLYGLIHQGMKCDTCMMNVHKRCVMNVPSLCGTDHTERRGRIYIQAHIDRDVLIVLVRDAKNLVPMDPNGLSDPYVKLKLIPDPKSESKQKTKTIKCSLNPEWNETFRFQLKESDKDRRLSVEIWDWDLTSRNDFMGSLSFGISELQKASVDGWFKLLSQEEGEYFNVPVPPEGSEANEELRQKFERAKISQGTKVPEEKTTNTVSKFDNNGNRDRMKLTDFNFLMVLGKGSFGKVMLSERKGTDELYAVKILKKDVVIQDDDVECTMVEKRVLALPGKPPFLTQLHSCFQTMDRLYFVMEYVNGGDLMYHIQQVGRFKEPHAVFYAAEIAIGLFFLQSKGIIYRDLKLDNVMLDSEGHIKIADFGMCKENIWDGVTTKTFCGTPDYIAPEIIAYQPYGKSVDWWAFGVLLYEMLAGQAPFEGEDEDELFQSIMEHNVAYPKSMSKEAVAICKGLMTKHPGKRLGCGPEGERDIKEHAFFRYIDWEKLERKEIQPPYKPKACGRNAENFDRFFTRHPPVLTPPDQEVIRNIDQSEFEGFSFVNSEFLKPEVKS

H82 (SCLC) = assay: xenograft tumor model
CDK7/cyclinH/MAT1 = target: T8, CDK7/cyclinH/MAT1 (Homo sapiens, UniProt P50613); assay: Upstate kinase Profiler counter-screening; type: biochemical
T8 construct: purchased Upstate
T8 sequence (P50613 whole entry, species assumed): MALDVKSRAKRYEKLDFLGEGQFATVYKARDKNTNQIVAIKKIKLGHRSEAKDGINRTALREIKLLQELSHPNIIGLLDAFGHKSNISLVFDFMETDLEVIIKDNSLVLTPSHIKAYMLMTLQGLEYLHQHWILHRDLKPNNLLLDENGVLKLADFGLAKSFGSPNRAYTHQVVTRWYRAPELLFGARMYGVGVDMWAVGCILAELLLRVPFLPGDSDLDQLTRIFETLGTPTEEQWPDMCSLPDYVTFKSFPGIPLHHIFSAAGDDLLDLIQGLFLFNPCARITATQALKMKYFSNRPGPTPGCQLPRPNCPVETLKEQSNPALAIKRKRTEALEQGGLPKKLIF
T8 sequence (P51946 whole entry partner, species assumed): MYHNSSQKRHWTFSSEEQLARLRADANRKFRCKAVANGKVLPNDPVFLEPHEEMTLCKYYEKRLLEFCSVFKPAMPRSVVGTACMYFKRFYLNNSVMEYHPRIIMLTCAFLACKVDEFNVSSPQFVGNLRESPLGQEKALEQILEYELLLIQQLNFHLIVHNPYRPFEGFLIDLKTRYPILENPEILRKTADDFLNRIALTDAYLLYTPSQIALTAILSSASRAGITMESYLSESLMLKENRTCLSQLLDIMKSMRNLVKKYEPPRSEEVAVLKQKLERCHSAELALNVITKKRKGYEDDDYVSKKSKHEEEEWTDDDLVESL
T8 sequence (P51948 whole entry partner, species assumed): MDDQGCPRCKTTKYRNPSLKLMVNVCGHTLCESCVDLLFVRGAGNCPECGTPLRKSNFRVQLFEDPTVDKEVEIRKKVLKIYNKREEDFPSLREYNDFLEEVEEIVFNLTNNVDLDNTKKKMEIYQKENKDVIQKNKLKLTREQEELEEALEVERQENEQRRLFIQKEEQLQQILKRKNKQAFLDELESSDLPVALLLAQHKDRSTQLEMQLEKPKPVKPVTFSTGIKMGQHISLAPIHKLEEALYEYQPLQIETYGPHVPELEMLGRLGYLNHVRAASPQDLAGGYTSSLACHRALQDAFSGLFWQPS

AMPK = assay: Upstate kinase Profiler counter-screening; type: biochemical
tumor = settings: for Status: 4-week schedule
From the text: Each 28-day dosing cycle comprising once weekly administration for three weeks with a week off.

[3] = system: A2780 ovarian cancer cell cultures; settings: 2 hours of exposure, 6 hour washout; no increase up to 5.0 micromolar
Method: After the 6 hour washout period, cell extracts were prepared and evaluated by fluorometric assay for activated caspases (RFLU).

T1 sequence (O75582 whole entry, species assumed): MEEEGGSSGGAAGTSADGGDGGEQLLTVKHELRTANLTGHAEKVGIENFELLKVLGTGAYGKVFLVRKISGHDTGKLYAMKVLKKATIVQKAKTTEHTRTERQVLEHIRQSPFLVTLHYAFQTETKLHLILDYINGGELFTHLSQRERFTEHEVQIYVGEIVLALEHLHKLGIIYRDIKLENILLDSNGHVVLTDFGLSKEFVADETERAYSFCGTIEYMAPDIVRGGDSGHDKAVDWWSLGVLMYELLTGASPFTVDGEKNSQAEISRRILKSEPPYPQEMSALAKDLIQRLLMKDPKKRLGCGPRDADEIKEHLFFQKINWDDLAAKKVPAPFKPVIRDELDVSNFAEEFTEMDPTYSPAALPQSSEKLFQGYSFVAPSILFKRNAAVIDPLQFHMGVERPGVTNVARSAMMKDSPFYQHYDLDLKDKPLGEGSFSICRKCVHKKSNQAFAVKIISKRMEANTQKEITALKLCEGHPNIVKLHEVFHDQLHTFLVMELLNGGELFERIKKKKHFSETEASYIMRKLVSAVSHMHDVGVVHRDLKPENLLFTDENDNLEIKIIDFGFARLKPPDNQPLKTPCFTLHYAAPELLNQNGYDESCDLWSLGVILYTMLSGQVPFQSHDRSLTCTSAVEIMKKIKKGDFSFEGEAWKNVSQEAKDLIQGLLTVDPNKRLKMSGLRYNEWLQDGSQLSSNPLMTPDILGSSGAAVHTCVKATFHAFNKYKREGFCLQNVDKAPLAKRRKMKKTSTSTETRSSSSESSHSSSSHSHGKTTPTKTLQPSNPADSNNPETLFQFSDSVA
Blk, sequence (P16277 2-499 limits assumed): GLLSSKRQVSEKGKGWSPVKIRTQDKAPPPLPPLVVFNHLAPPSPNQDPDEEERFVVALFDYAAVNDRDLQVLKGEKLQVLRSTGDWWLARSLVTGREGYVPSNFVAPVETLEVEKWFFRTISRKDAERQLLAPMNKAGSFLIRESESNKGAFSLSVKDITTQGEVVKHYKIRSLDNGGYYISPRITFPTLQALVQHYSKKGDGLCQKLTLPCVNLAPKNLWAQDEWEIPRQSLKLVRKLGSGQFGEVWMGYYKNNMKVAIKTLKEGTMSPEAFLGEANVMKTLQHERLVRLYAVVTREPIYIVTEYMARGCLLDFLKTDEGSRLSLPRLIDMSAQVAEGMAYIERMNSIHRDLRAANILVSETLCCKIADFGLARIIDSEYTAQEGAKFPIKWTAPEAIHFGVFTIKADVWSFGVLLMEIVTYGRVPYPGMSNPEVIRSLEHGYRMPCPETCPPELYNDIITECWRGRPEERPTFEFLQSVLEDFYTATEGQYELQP

Question: What does the source list for `CCc1cnn2c(NCc3ccc[n+]([O-])c3)cc(N3CCCC[C@H]3CCO)nc12` [Formula II]?
Answer: % remaining activity (MSK1; at 1 μM): 94%; % remaining activity (MSK1; at 10 μM): 97%; % remaining activity (Blk; at 1 μM): 69%; % remaining activity (Blk; at 10 μM): 100%; tumor growth inhibition ([1]; 8 mg/kg IP daily for 10 days): 70%; tumor growth inhibition ([1]; 16 mg/kg IP daily for 10 days): 70%; tumor growth inhibition ([1]; 32 mg/kg IP daily for 10 days): 90%; tumor growth inhibition ([1]; 48 mg/kg IP daily for 10 days): 96%; 50% inhibition level (minimum effective dose) ([1]; IP daily for 10 days): less than 8 mg/kg; MED ([1]; once per day IP for 7 days, dose inducing at least 50% inhibition of tumor growth): 5 mg/kg; % remaining activity (CDK6/cyclinD3): 12%; phospho-Rb in proliferating epithelial cells of basal epithelium and hair follicles (phospho-Rb Ser 807/811): rapid and sustained suppression of phospho-Rb; % remaining activity (PKCε; at 1 μM): 93%; % remaining activity (PKCε; at 10 μM): 88%; % remaining activity (Rsk2; at 1 μM): 104%; % remaining activity (Rsk2; at 10 μM): 76%; body-weight loss over the course of the experiment (maximum dosage level (48 mg/kg IP daily for 10 days)): about 5%; MTD (once per day IP for 7 days, dose inducing 20% loss of body weight): 60 mg/kg; exposure completely suppressing DNA synthesis (A2780 cells): greater than 0.5 micromolar; exposure showing accumulation of subG1 (apoptotic cells) (A2780 cells): greater than 0.5 micromolar; % BrdU incorporated at 8 hrs post-infusion ([2]; Patient A, 1.85 mg/M2, Pre-Dose 28): 65%; % BrdU incorporated at 8 hrs post-infusion ([2]; Patient B, 3.7 mg/M2, Pre-Dose 10): 13%; % BrdU incorporated at 8 hrs post-infusion ([2]; Patient C, 7.4 mg/M2, Pre-Dose 51): 11%; % BrdU incorporated at 8 hrs post-infusion ([2]; Patient F, 50 mg/M2, Pre-Dose 33): 1%; % BrdU incorporated at 8 hrs post-infusion ([2]; Patient G, 58 mg/M2, Pre-Dose 23): 0.7%; % BrdU incorporated at 8 hrs post-infusion ([2]; Patient H, 41.4 mg/M2, Pre-Dose 41): 45%; % remaining activity (Lyn; at 1 μM): 108%; % remaining activity (Lyn; at 10 μM): 110%; % remaining activity (cSRC; at 1 μM): 117%; % remaining activity (cSRC; at 10 μM): 111%; % remaining activity (PKCβII; at 1 μM): 110%; % remaining activity (PKCβII; at 10 μM): 113%; % inhibition observed at dosage of 5 mg/kg Formula II (H82 (SCLC); first Formula II column): 56%; % inhibition observed at dosage of 5 mg/kg Formula II (H82 (SCLC); second Formula II column): 65%; % remaining activity (CDK7/cyclinH/MAT1; at 1 μM): 7%; % remaining activity (CDK7/cyclinH/MAT1; at 10 μM): 4%; % remaining activity (AMPK; at 1 μM): 94%; % remaining activity (AMPK; at 10 μM): 82%; effect on tumor volume (A549 NSCLC xenografts; 5 dosing schedules (20, 29, 52, 3x17, 87 mg/kg), total 260 mg/kg): regression in tumor volume and mass; % inhibition observed at dosage of 5 mg/kg Formula II (A549 NSCLC xenografts; first Formula II column): 73%; % inhibition observed at dosage of 5 mg/kg Formula II (A549 NSCLC xenografts; second Formula II column): 160 (regression) %; Status (tumor; adenoidcystic carcinoma patient, 7.11 mg/m^2, 5 cycles): disease progression; Status (tumor; melanoma patient, 3.63 mg/m^2, 9 cycles): disease progression; Status (tumor; prostate patient, 3.63 mg/m^2, 4 cycles): disease progression; Status (tumor; pseudomyxoma patient, 2.59 mg/m^2, 9 cycles): off study with stable disease; tumor markers (FIG. 11, incl. CA125) (tumor; pseudomyxoma peritonei patient, after 6 cycles of 28 day treatment at 2.59 mg/m^2): falling tumor markers; responses by RECIST criteria in the population (tumor; various dosages, 2 hour IV infusion, 28-day dosing cycle): No complete or partial responses; exposure level at which caspase activity is maximal [3]: 0.05 µM

— US20100286038A1, “FORMULATION CONTAINING CYCLIN-DEPENDENT KINASE INHIBITING COMPOUND AND METHOD OF TREATING TUMORS USING THE SAME” (priority 2007, published 2010)
